# Reference: patent publication US20240365774A1, “METHODS FOR CRYOPROTECTION AND LYOPROTECTION OF CELLS” (LONZA LTD, priority 2021, published 2024)
# Entries after “also recorded” stand apart in the source; their conditions may differ.
# System: human mesenchymal stem cells (hMSCs)
# Assay: Freeze-thaw of hMSCs in CPA formulations at −80° C., viability by alamarBlue assay
# Format: cell-based
# Protocol: Adherent bone marrow derived human mesenchymal stem cells (hMSCs) (ATCC) were expanded to create a cell bank and stored in the vapor phase of liquid nitrogen in growth medium supplemented with 50% FBS and 7.5% DMSO at passage 3. Aliquots of those samples were warmed in a 37° C. water bath and cultured in MSCGM™ Mesenchymal Stem Cell Growth Medium BulletKit™ (containing FBS, Lonza); a commercially available medium that facilitates undifferentiated proliferation of hMSCs. The cells were kept in a humidified incubator at 37° C. and 5% CO2, whilst the growth medium was changed every 3-4 days. When hMSCs reached confluence of ˜90%, they were split and re-seeded at ˜5000 cells/cm^2 to facilitate further expansion. For experiments, cells between passages 4-8 were used. […]
# For frozen samples, that is for samples after freezing and thawing, viability was measured by performing an alamarBlue™ assay (Invitrogen) according to the manufacturer's instructions. […] This reaction only takes place in cells that are metabolically active (viable), thus correlating measured fluorescence with viable cells. […] Assay reagent was then applied and, after a 4 h incubation, fluorescence was measured using a SpectraMax® iD3 with wavelengths of λex=550 nm and λem=590 nm. Background fluorescence values were subtracted from the measurements and compared to fluorescence values of untreated cells.
compound,measurement,setting,value
"C[S+](C)[O-] [DMSO, dimethyl sulfoxide, reference compound]",viable cells after freeze-thaw,5% DMSO control,58%
NC(N)=O [urea],viable cells after freeze-thaw (cryoprotection),"urea alone, 0.05, 0.1, 0.2 and 0.5 M, FIG. 1A",virtually no viable cells; also recorded: does not facilitate cryoprotection
